Measurements: patent publication US20230365570A1, “COMPOUNDS WITH GLUCOCORTICOID SPARING EFFECTS AND USES THEREOF” (The Regents of the University of California, priority 2020, published 2023)

Key:
THP-1 cells [1] = experiment: IL-1ß stimulated CXCL8 release by THP-1 cells; type: cell-based, human; details: IL-1ß 2 ng/ml, overnight (FIG. 3C)
Experimental: (§1) THP-1 cells (10^5 cells/200 μL/well) and RA FLS (104/200 μL/well) were plated in 96 well plates and pre-treated with compound or vehicle for 1 h and then stimulated with either LPS (10 ng/ml), 1L-1ß (2 ng/ml) or TNF (2 ng/ml for THP-1 and 1 ng/ml for RA FLS). After 18 h of incubation, supernatants were collected and the levels of cytokines and chemokines in the culture supernatants were measured by ELISA according to the manufacturer's protocols (R&D systems, Minneapolis, MN).
(§2) The lead compounds belonging to chemotypes 1, 3, and 5 were tested for potency in suppressing chemokine and cytokine production by THP-1 cells in the presence of different inflammatory stimuli. The production of CXCL8 induced by either LPS (10 ng/ml), IL-1ß (2 ng/ml), or TNF (2 ng/ml) and TNF induced by IL-1ß (2 ng/ml) was assessed using serially diluted compounds. The compounds except 1-2 reduced the level of CXCL8 production stimulated by LPS in a dose dependent manner (FIG. 3A). However, the compounds from chemotype 5 enhanced CXCL8 release by THP-1 cells when stimulated with IL-111, or TNF (FIGS. 3B, C). […] The 1Cs0 for 1-1, 1-2 and 3-1 for IL-1ß stimulated CXCL8 release included 400, 1770, and 2020 nM, respectively, (FIG. 3C).

RA FLS [2] = experiment: Synergy of compound 1-1 with DEX in TNF stimulated RA FLS (isobologram); type: cell-based, human
Experimental: Drug synergy analysis was performed using lsobologram plots which were calculated according to reported procedures to compute IC50 and determine synergism. IC50 is computed from the median effect equation. Synergism analysis is carried out using the Combination index (Cl)-isobol method. Data analysis was performed using the CompuSyn software available on combisyn.com, Detailed methodology was used as described in a prior report. […] This is followed by Cl-isobol method to quantitatively assess the synergism between these inhibitor drugs. […] From the median effect equation, the estimated dose (i.e., D) necessary to produce the inhibition (i.e., Fa, Fu) obtained by the combination was calculated. […]
(§3) In the pathogenesis of rheumatoid arthritis, fibroblast-like synoviocytes (RA FLS) are a primary source of inflammatory cytokines and chemokines in inflamed joints. The immunomodulatory effects and cytotoxicity of compound 1-1 on RA FLS was analyzed. […] To assess the synergistic effect of compound 1-1 with DEX in RA FLS, IL-6 and CXCL8 suppression was analyzed by co-titrating DEX and compound 1-1 in cultures with TNF stimulated RA FLS (FIG. 7A, B).

[3] = target: metabotropic glutamate receptor subtype 4 (mGluR4) (Homo sapiens, UniProt Q14833); details: previously described in another system; cited from earlier work
RA FLS [4] = experiment: Cell viability of RA FLS by WST-8 assay; type: cell-based, human; details: WST-8 assay (FIG. 6F)
Experimental: Two types of tetrazolium were used for viability assays. For THP-1 cells, the cells were dispensed in 96-well plates (10^5 cells/200 μL/ well) and treated with 5 Oil of each compound. After 18 h of incubation, 0.5 mg/ml 3[4,5-dimethylthiazol-2-yl]-2,5-dipheyl tetrazolium bromide (MTT; Thermo Fisher Scientific) in assay media was added to each well at a final concentration of (0.5 mg/ml) and further incubated for 4-6 h. The absorbances at 570 and 650 nm were measured by a Tecan Infinite M200 plate reader, For RA FLS, the cells were dispersed into 96-well flat bottom plates (104/200 μL/well) and incubated overnight. The next day, RA FLS were treated with 5 μM of each compound for 18 h of incubation. Ten μl of WST-8 [2-(2-methoxy-4-nitrophenyl)-3-(4-nitrophenyl)-5-(2,4-disulfophewnyl)-2H-tetrazolium, monosodium salt] solution was added to each well and the cells were further incubated for 2-4 h. The absorbance was measured at 450 nm with Bio-Rad iMark plate reader (Bio-Rad Laboratories Inc., Hercules, CA, Unites States).

THP-1 cells [5] = experiment: IL-1ß stimulated TNF release by THP-1 cells; type: cell-based, human; details: THP-1 cells, IL-1ß 2 ng/ml, overnight (FIG. 3D)
Experimental: as §1, §2

RA FLS [6] = experiment: Chemokine and cytokine production by TNF stimulated RA FLS; type: cell-based, human
Text: Rheumatoid arthritis fibroblast-like synoviocytes (RA FLS) were isolated from synovial tissues derived from patients with RA when they underwent joint replacement surgery or synovectomy. Patients were age ≥18 years with active RA based on the ACR 1987 Revised Criteria and consent forms were completed by the patients before surgery. The study protocol was approved by the institutional review board at TokyoMedical andDental University, Tokyo, Japan and are in accordance with the principles of the Declaration of Helsinki. RA FLS were cultured in DMEM supplemented with 10% FBS, 100 U/mL penicillin, and 100 μg/mL streptomycin in a humidified 5% CO2 incubator. All experiments used proliferating RA FLS.
as §1, §3

metabotropic glutamate receptor subtype 4 (mGluR4), sequence (Q14833 33-912): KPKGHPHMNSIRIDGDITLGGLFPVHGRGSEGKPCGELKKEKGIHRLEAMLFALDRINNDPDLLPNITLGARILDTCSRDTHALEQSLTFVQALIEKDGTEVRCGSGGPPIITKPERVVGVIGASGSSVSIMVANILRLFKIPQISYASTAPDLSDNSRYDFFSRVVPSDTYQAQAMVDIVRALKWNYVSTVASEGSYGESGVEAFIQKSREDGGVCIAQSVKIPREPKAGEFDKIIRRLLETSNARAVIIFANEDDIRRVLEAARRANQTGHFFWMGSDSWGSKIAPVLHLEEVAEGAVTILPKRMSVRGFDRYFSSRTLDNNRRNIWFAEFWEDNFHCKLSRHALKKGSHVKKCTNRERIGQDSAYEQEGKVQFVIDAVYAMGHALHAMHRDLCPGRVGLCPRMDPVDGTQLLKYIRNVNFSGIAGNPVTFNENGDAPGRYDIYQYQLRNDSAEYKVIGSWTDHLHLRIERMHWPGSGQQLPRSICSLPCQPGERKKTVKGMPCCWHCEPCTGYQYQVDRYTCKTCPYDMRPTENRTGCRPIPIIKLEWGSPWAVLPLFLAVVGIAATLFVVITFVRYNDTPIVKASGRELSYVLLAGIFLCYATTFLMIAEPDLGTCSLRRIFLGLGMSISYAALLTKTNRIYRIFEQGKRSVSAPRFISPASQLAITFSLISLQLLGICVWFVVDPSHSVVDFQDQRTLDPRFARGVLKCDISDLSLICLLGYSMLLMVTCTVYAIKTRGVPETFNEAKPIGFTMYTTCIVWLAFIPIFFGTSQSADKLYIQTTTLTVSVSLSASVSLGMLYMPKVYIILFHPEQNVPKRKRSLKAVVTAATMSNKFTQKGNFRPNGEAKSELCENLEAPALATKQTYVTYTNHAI

IC50 (THP-1 cells [1]): 400 nM
IC50 (THP-1 cells [5]): 190 nM
IC50 in RA FLS (RA FLS [6]; comparable to that in THP-1): micromolar level
SMILES: Cc1ccc(-n2ncc3c(NC4CCCCC4)ncnc32)c(C)c1 [Compound 1-1]
Synergistic effect with DEX, CXCL8 release (RA FLS [2]; isobologram (FIG. 7C)): synergistic effects
Synergistic effect with DEX, IL-6 release (RA FLS [2]; isobologram (FIG. 7D)): synergistic effects
Modulation of mGluR4 [3]: positive allosteric modulator
Cytotoxicity in RA FLS (RA FLS [4]): low cytotoxicity
CCL2 production induced by TNF (RA FLS [6]; TNF 1 ng/ml overnight): dose-dependently suppressed
CXCL1 production induced by TNF (RA FLS [6]; TNF 1 ng/ml overnight): dose-dependently suppressed
CXCL8 production induced by TNF (RA FLS [6]; TNF 1 ng/ml overnight): dose-dependently suppressed
IL-6 production induced by TNF (RA FLS [6]; TNF 1 ng/ml overnight): dose-dependently suppressed
MMP-3 production induced by TNF (RA FLS [6]; TNF 1 ng/ml overnight): not
